From PubChem BioAssay (NCI)
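Where inhibition never reached the appropriate level, the endpoint shown equals the highest concentration tested. Otherwise, values were interpolated linearly from a five-concentration, 48-hour dose response in 96-well plates. Definition used: TGI = concentration required for complete inhibition of growth.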

Key:
Test in all cases: NCI tumour cell line growth inhibition, 48 h
UACC-257 melanoma = system: UACC-257 melanoma
NCI-H522 lung = system: NCI-H522 lung
HCT-15 colon = system: HCT-15 colon
SNB-19 CNS = system: SNB-19 CNS
LOX IMVI melanoma = system: LOX IMVI melanoma
SW-620 colon = system: SW-620 colon
HCT-116 colon = system: HCT-116 colon
HT29 colon = system: HT29 colon
SK-MEL-2 melanoma = system: SK-MEL-2 melanoma
PC-3 prostate = system: PC-3 prostate
OVCAR-8 ovarian = system: OVCAR-8 ovarian
NCI/ADR-RES ovarian = system: NCI/ADR-RES ovarian
MCF7 breast = system: MCF7 breast
HS 578T breast = system: HS 578T breast
UACC-62 melanoma = system: UACC-62 melanoma
MDA-MB-435 = system: MDA-MB-435
COLO 205 colon = system: COLO 205 colon
T-47D breast = system: T-47D breast
EKVX NSCLC = system: EKVX NSCLC

Structure (SMILES)	TGI (UACC-257 melanoma)	TGI (NCI-H522 lung)	TGI (HCT-15 colon)	TGI (SNB-19 CNS)	TGI (LOX IMVI melanoma)	TGI (SW-620 colon)	TGI (HCT-116 colon)	TGI (HT29 colon)	TGI (SK-MEL-2 melanoma)	TGI (PC-3 prostate)	TGI (OVCAR-8 ovarian)	TGI (NCI/ADR-RES ovarian)	TGI (MCF7 breast)	TGI (HS 578T breast)	TGI (UACC-62 melanoma)	TGI (MDA-MB-435)	TGI (COLO 205 colon)	TGI (T-47D breast)	TGI (EKVX NSCLC)
O=c1cc(-c2ccccc2Cl)[nH]c2cc3c(cc12)OCO3	> 72 µM	0.489 µM	0.355 µM	> 100 µM	11.9 µM	> 100 µM	16 µM	1.46 µM	3.74 µM	> 100 µM	9.88 µM	0.0698 µM	> 100 µM	4.06 µM	15.7 µM	0.0313 µM	0.195 µM	> 100 µM	
Cc1cc(=O)[nH]c(CNC(=O)Cc2ccccc2)n1	> 100 µM	> 100 µM	> 100 µM	> 100 µM	> 100 µM	> 100 µM		> 100 µM	> 100 µM		> 100 µM				> 100 µM		> 100 µM		> 100 µM
COC(=O)C(=O)C1CCCCC(C2=NC3NN=C(N)N3C2=O)C1=O (stereo not drawn)	> 100 µM	> 100 µM	> 100 µM	> 100 µM	> 100 µM	> 100 µM	> 100 µM	> 100 µM	> 100 µM		> 100 µM				> 100 µM		> 100 µM		> 100 µM
CCOC(=O)c1c(C(F)(F)F)oc2c1ccc1nc3nonc3nc12	27.9 µM	29.3 µM	32.6 µM	38.2 µM	31.8 µM	35.3 µM	32.1 µM	28.9 µM	33.8 µM		30.4 µM				29.1 µM		55.1 µM		33.3 µM
CC(C)c1cccc(C(C)C)c1NC1=CC(=O)C(=O)c2ccccc21	> 100 µM	> 100 µM	> 100 µM	> 100 µM	> 100 µM	> 100 µM	> 100 µM	> 100 µM	> 100 µM		> 100 µM				> 100 µM		> 100 µM		> 100 µM
Cn1c2c(cc(-c3ccccc3)c1=O)COc1ccccc1-2	> 100 µM	52.3 µM	> 100 µM	> 100 µM	31.3 µM	> 100 µM	37.9 µM	47.1 µM	30.4 µM		> 100 µM				28.9 µM		> 100 µM		> 100 µM
CCCCCCCCCC(=O)CC(=O)c1c(O)cc(O)cc1O	63.4 µM	47.3 µM	43.8 µM	68.1 µM	35.4 µM	> 75 µM	> 75 µM	38.8 µM	40.9 µM	41.8 µM	36.9 µM	38.6 µM	> 75 µM	44.9 µM		39.1 µM	> 75 µM	> 75 µM	> 75 µM
FC(F)(F)C1(C(F)(F)F)C2CCC3(CC(F)(F)C(F)(F)S3)C1C2 (stereo not drawn)	74.3 µM	> 100 µM	> 100 µM	> 100 µM	47.4 µM	> 100 µM	42.5 µM	> 100 µM	49.1 µM	> 100 µM	> 100 µM	> 100 µM	84.3 µM	> 100 µM	> 100 µM	> 100 µM	76.3 µM	> 100 µM	96.6 µM
CO[C@H](c1ccccc1)[C@H](C)N(C)c1ccc2ccccc2c1C1=NC(C)(C)CO1	30.6 µM	19.4 µM	29.7 µM	84.7 µM		33.4 µM	34.6 µM	25.1 µM	29.7 µM		26.7 µM				> 100 µM		40.9 µM		44.2 µM
CCCCCC(=O)Cc1cc(OC)cc2c1C(=O)Oc1cc(O)c(C(=O)O)c(CC(=O)CCCCC)c1O2	> 100 µM	> 100 µM			> 100 µM	> 100 µM	71.2 µM	> 100 µM			> 100 µM				49.6 µM		> 100 µM		> 100 µM
N#C/C(=C\c1ccc(O)cc1O)C(N)=O	> 100 µM	> 100 µM	> 100 µM	> 100 µM	> 100 µM	> 100 µM	> 100 µM	98.2 µM	> 100 µM		> 100 µM				> 100 µM		26.5 µM		> 100 µM
COC(=O)CCc1ccc2c(c1)CC1(C2)Cc2ccc3c(c2C1)CCC3 (stereo not drawn)	> 100 µM	> 100 µM	> 100 µM	> 100 µM	> 100 µM	> 100 µM	> 100 µM	> 100 µM		> 100 µM	> 100 µM	> 100 µM	> 100 µM	> 100 µM	> 100 µM	> 100 µM	> 100 µM	> 100 µM	> 100 µM
CC1=NN(c2ccccc2)C(=O)C1=C1SCCCS1	94.1 µM	37.5 µM	> 100 µM	84.7 µM	55.8 µM	26.6 µM	31.7 µM	> 100 µM	> 100 µM		> 100 µM				39.7 µM		29.3 µM		88.4 µM
CC(=O)O/C=C\OC1CCCC1	> 100 µM	> 100 µM	> 100 µM	> 100 µM	> 100 µM	> 100 µM		> 100 µM	> 100 µM	> 100 µM	> 100 µM	> 100 µM	> 100 µM	> 100 µM	> 100 µM	> 100 µM	> 100 µM	> 100 µM	> 100 µM
Nc1ccc(C(=O)NN2C(=O)C(Cl)C2c2cccc([N+](=O)[O-])c2)cc1 (stereo not drawn)	51 µM	25.1 µM	45.7 µM	32.1 µM	25.1 µM	40 µM	34.2 µM	37.9 µM	35.7 µM		39.3 µM				37.1 µM		35 µM		47.7 µM
COC1=CC(=O)c2ccccc2C1(C)C1=NC(C)(C)CO1 (stereo not drawn)	> 100 µM	> 100 µM	> 100 µM	> 100 µM		> 100 µM	> 100 µM	> 100 µM	> 100 µM		> 100 µM				> 100 µM		> 100 µM		> 100 µM
